# From patent US20060270591A1, “Androgen receptor coregulators” (priority 2002, published 2006)
# Experiments:
# [1] = target: mtARt877s and gelsolin (Homo sapiens, UniProt P10275, T878S); conditions: 10 μM HF, 100 nM DHT, 1 μM E2, 1 μM P; compared to EtOH
# Excerpt: Y190 yeast cells were transformed with pAS2-mtARt877s (aa 595-918) and pATC2-gelsolin (aa 281-731).
# [2] = target: wtAR and gelsolin (Homo sapiens, UniProt P10275); conditions: COS-7 cells; T 10 nM; HF 1 μM
# [3] = system: AR; experiment: AR reporter gene assay with gelsolin (Example 5); assay type: cell-based, human; conditions: 100 nM HF; normal 10% FCS medium; no gelsolin
# Excerpt: 468. A C-terminal fragment of gelsolin (aa 281-731) was isolated from pACT2 encoding gelsolin, and inserted into pSG5-Gal4 DNA-binding domain (DBD) (constructed by Dr. R. Nakao). AR fragment (aa 36-918) was inserted into pCMX-VP16 (a gift from Dr. D. Chen). For gelsolin expression vector, a full-length cDNA fragment of gelsolin from LKCG, a gift from Dr. D. Kwiatkowski (Northwestern University, Evanston, Ill.), was inserted into pSG5. Dr. M. L. Lu (Harvard Medical School, Boston, Mass.) provided the p (ARE) 4-luciferase (LUC) plasmid. Dr. A. Mizokami (University of Kanazawa, Kanazawa, Japan) provided the pGL3-PSA6.0LUC plasmid. The expression plasmids of AR peptides were constructed by inserting the PCR amplified cDNA fragment of AR DBD into pFlag-CMV (Sigma) and the fragments of AR LBD into pCDNA-flag plasmid. Transfection protocol and reporter gene assay were described in previous report (Ting et al. Proc Natl Acad Sci USA 99, 661-666 (2002)).
# [4] = target: T1, GR (Homo sapiens, UniProt P04150); experiment: GR transactivation luciferase assay with ARA267; assay type: cell-based; set-up: expressed in transfected cells; host or cells: DU145, PC-3, HepG2; conditions: HepG2 cells
# T1 sequence (P04150 1-777): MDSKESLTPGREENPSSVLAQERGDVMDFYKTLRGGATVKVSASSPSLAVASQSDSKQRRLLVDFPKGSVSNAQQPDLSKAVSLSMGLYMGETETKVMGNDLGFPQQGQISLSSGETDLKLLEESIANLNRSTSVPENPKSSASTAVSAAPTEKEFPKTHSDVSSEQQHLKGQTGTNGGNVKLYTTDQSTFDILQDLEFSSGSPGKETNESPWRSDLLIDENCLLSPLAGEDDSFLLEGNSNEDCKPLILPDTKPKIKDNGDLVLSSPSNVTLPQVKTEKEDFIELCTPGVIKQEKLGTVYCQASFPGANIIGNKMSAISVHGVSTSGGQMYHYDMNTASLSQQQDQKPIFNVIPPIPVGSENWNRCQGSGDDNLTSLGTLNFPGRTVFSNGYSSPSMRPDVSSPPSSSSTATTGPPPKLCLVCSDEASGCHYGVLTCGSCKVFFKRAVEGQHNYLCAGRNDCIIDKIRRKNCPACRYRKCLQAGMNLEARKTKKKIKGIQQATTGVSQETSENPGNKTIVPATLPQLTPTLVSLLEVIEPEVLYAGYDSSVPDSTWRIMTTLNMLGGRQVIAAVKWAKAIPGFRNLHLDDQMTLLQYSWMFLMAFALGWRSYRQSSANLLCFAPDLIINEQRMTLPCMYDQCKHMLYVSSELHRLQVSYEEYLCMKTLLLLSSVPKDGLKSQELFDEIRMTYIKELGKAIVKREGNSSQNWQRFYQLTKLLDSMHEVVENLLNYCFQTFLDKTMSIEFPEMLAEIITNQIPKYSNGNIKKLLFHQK
# Experimental: (§1) 31. […] The luciferase activity of each receptor without ARA267 and ligands was set as one fold. All values represent the mean SD of three independent experiments.
# (§2) 444. Human prostate cancer cell line PC-3 and DU145, lung cancer cell line H1299, and hepatoma cell line HepG2 were grown in DMEM-10% FCS. For transfection the cells were plated in 60-mm dishes and experiments performed by modified calcium phosphate technique as previously described (Yeh et al. Proc. Natl. Acad. Sci. U.S.A. (1996) 93, 5517-5521). After incubation for 24 h, the cells were treated with steroid hormones for another 24 h, then harvested for the chloramphenicol acetyltransferase (CAT) assay. Mouse mammary tumor virus-(MMTV)-CAT reporter gene was used to measure AR transcription activity, and a β-Galactosidase expression gene (pCMV-O-gal) was incorporated into the experiments as an internal control (Yeh et al. Proc. Natl. Acad. Sci. U.S.A. (1996) 93, 5517-5521). CAT activity was visualized by a PhosphorImager (Molecular Dynamics) and quantitated by IMAGEQUANT software (molecular Dynamics). For Luciferase (LUC) assay, pG5-LUC, pMMTV-LUC or estrogen response element (ERE)-LUC plasmid was used as the reporter gene and SV40-PRL (promega) was used as an internal control. Dual-luciferase Reporter 1000 Assay System (promega) was employed to measure the luciferase activity.
# [5] = target: T2, ER (Homo sapiens, UniProt P03372); experiment: ER transactivation luciferase assay with ARA267; assay type: cell-based; set-up: expressed in transfected cells; host or cells: DU145, HepG2, PC3; conditions: HepG2 cells
# T2 sequence (P03372 1-595): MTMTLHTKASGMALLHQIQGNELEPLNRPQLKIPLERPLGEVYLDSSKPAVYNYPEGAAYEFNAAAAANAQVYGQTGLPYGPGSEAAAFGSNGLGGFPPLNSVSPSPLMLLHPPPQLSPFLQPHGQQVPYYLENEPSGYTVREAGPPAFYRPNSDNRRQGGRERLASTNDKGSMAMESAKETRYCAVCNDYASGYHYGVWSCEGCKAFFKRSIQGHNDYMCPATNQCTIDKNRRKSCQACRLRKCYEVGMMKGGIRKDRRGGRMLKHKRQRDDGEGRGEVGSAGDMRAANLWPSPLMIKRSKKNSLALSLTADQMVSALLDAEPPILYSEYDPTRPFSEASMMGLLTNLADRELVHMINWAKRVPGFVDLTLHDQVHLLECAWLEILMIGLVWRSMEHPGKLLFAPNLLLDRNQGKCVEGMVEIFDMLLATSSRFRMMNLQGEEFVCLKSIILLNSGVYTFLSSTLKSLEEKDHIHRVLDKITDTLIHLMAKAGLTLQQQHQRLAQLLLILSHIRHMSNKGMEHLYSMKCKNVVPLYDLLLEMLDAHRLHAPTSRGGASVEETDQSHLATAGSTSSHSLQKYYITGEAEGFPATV
# Experimental: as §1, §2
# [6] = system: AR; experiment: AR transactivation reporter assay (CAT/LUC) with ARA267 (Example 4); assay type: cell-based, human
# Experimental: as §2
# [7] = system: PSA; experiment: Western blot of PSA in LNCaP cells transfected with ARA267; assay type: cell-based, human; conditions: 10 nM DHT
# Experimental: 447. LNCaP cells were transfected with pSG5ARA267 and pSG5 vector by Superfect (Qiagen) respectively. […] The cells were harvested and lysed following the protocol from Santa Cruz Biotechnology. In each sample, 50 μg whole-cell lysis proteins were separated on 10% SDS-polyacrylamide gel. After transfering, the membrane was blotted with polyclonal AR antibody (NH27), PSA antibody (Dako Corporation), and β-actin antibody (Santa Cruz Biotechnology). The bands were developed with an alkaline phosphatase detection kit (Bio-Rad).
interaction between mtARt877s and gelsolin (β-gal activity) [1],interaction between wtAR and gelsolin [2],effect on the transactivation of GR [4],effect on the transactivation of ER [5],Compound,inhibition of AR transactivation [3],effect on AR transactivation ([6]; 10 nM E2),"effect on DHT-mediated AR transactivation ([6]; PC-3 cells, MMTV-CAT)",effect on DHT-induced PSA protein expression [7]
promoted significant interaction,induced significant interaction,–,–,"CC(C)(O)C(=O)Nc1ccc([N+](=O)[O-])c(C(F)(F)F)c1 [HF, hydroxyflutamide]",80%,–,–,–
–,–,marginal effect,marginal effect,"ARA267: AR coregulator of 2427 amino acids containing a SET domain, calculated molecular weight 267 kD",–,marginal effects,enhance DHT-mediated AR transactivation in a dose-dependent manner,enhance DHT-induced PSA protein expression
